In brackets after ≈: the same amount, converted by molar mass. Read-outs that look alike come from different tables or passages of the source.
Assays:
Format in all cases: cell-based
[1] = test system: S. pneumoniae; test: In vitro antibacterial activity, microdilution MIC, S. pneumoniae; conditions: Streptococcus pneumoniae, microdilution method, read-out: Minimal Inhibitory Concentration MIC
Description: (§1) The compounds of the invention display antibacterial activity when tested by the microdilution method as described in Heifetz, et al, Antimicr. Agents and Chemoth., 6, 124 (1974), which is incorporated herein by reference.
(§2) By use of this method, the following minimum inhibitory concentration values (MICs in μg/ml) were obtained for representative compounds of the invention.

[2] = test system: P. aeruginosa; test: In vitro antibacterial activity, microdilution MIC, P. aeruginosa; conditions: Pseudomonas aeruginosa, microdilution method, read-out: Minimal Inhibitory Concentration MIC
Description: as §1, §2

[3] = test system: S. faecalis; test: In vitro antibacterial activity, microdilution MIC, S. faecalis; conditions: Enterococcus faecalis, microdilution method, read-out: Minimal Inhibitory Concentration MIC
Description: as §1, §2

[4] = test system: E. cloacae; test: In vitro antibacterial activity, microdilution MIC, E. cloacae; conditions: Enterobacter cloacae, microdilution method, read-out: Minimal Inhibitory Concentration MIC
Description: as §1, §2

[5] = test system: E. coli; test: In vitro antibacterial activity, microdilution MIC, E. coli; conditions: Escherichia coli, microdilution method, read-out: Minimal Inhibitory Concentration MIC
Description: as §1, §2

[6] = test system: K. pneumoniae; test: In vitro antibacterial activity, microdilution MIC, K. pneumoniae; conditions: Klebsiella pneumoniae, microdilution method, read-out: Minimal Inhibitory Concentration MIC
Description: as §1, §2

[7] = test system: S. pyogenes; test: In vitro antibacterial activity, microdilution MIC, S. pyogenes; conditions: Streptococcus pyogenes, microdilution method, read-out: Minimal Inhibitory Concentration MIC
Description: as §1, §2

[8] = test system: S. aureus; test: In vitro antibacterial activity, microdilution MIC, S. aureus; conditions: microdilution method; for MIC: Staphylococcus aureus, first S. aureus line (strain not given), read-out: Minimal Inhibitory Concentration MIC; for Minimal Inhibitory Concentration MIC: second S. aureus line (strain not given)
Description: as §1, §2

[9] = test system: P. rettgeri; test: In vitro antibacterial activity, microdilution MIC, P. rettgeri; conditions: Providencia rettgeri, microdilution method, read-out: Minimal Inhibitory Concentration MIC
Description: as §1, §2

[10] = first E. coli line (strain not given)
[11] = second E. coli line, last of table (strain not given)

SMILES | MIC [1] [µg/mL] | MIC [2] [µg/mL] | MIC [3] [µg/mL] | MIC [4] [µg/mL] | MIC [5, 10] [µg/mL] | MIC [5, 11] [µg/mL] | MIC [6] [µg/mL] | MIC [7] [µg/mL] | MIC [8] [µg/mL] | Minimal Inhibitory Concentration MIC [8] [µg/mL] | MIC [9] [µg/mL]
C=Cc1c(F)cc2c(=O)c(C(=O)O)cn(C3CC3)c2c1F [Compound 5, 1-Cyclopropyl-7-ethenyl-6,8-difluoro-1,4-dihydro-4-oxo-3-quinolinecarboxylic acid] | 0.8 (≈ 2.75 µM) | 1.6 (≈ 5.49 µM) | 0.2 (≈ 0.687 µM) | 0.1 (≈ 0.343 µM) | 0.2 (≈ 0.687 µM) | 0.1 (≈ 0.343 µM) | 0.4 (≈ 1.37 µM) | 0.8 (≈ 2.75 µM) | ≤ 0.025 | ≤ 0.025 | 0.4 (≈ 1.37 µM)
CCn1cc(C(=O)O)c(=O)c2cc(F)c(C3CCN(Cc4ccccc4)C3)nc21 (stereo not shown) [Compound 10] | 12.5 (≈ 31.6 µM) | > 25 | 25 (≈ 63.2 µM) | 12.5 (≈ 31.6 µM) | 12.5 (≈ 31.6 µM) | 12.5 (≈ 31.6 µM) | 25 (≈ 63.2 µM) | 12.5 (≈ 31.6 µM) | 6.3 (≈ 15.9 µM) | 6.3 | > 25

From US4945160A, “Preparation of certain 7-substituted quinolones” (Warner-Lambert Company, priority 1988, dated 1990)
